Series [1] concerns THP-1-derived macrophages. The series can be described thus: Cytotoxicity against THP-1 macrophages (MTT). The class given is cell-based, human. The conditions noted are these: 100 μM. How it is done: The effect of compounds 3k, 4h, 4m, and 4o on THP-1-derived macrophages was assessed by the colorimetric MTT assay [3-(4,5-dimethylthiazol-2-yl)-2,5-diphenyl tetrazolium bromide]. Briefly, 1 × 10^6 THP-1 cells were differentiated into macrophages by addition of 20 ng/mL of phorbol-myristate 13-acetate (PMA, Sigma-Aldrich) for 18 h, followed by replacement with a fresh medium and further incubation for 24 h. The cells were incubated with compounds ranging from 100 to 3 μM after dilution in the RPMI complete medium containing a maximum amount of 1% DMSO. After incubation for 72 h at 37 °C and 5% CO2, the medium was removed and 0.5 mg/mL MTT solution was added. The plates were incubated for 4 additional hours to allow viable cells to convert MTT into a purple formazan product. Solubilization of formazan crystals was achieved by addition of 2-propanol, and absorbance was read at 570 nm using a Synergy 2 multi-mode reader (BioTek).

The next series relates to 786-O. Nature of the series: cells. Conditions: Homo sapiens, 786-0; read-out: mitochondrial toxicity [IC50 uM]. On the set-up: mitochondrial toxicity in 786-O renal carcinoma cells.
Series [2] in a line: in vitro. On the set-up: cytotoxicity, per cent cell growth of A549 cells. The conditions noted are these: human, a549 cells; read-out: % cell growth A549 at 10uM.
Series [3] can be described thus: in vitro. Further details: cytotoxicity, per cent cell growth of WI-38 fibroblasts. The conditions noted are these: human, wi-38 cells; read-out: % cell growth W1-38 at 10uM.

Like-named read-outs stand apart in the source and are kept apart here. Bounds are passed on as bounds.

A word on the IC50: it is the midpoint of a concentration-inhibition curve. As to `Nc1nnc(NCc2ccc(-c3ccccc3)cc2)s1` [4m], the “toxicity in THP-1 cells alone vs combination with equimolar MTX” value in series [1] is listed as “no increase in toxicity”. For the same molecule, the IC50 in the series on 786-O is more than 100 µM. Also, the viability at 10 µM in “in vitro [2]” turned out to be 112 ± 9.5%; in the series “in vitro [3]” it was 95.9 ± 18.6%.

As for `Nc1nnc(NCCc2cccs2)s1` [4o, N2G(2G(thiophenG2Gyl)ethyl)G1,3,4GthiadiazoleG2,5Gdiamine], the IC50 in the series with 786-O is 17.8 µM. Besides, the values for the viability at 10 µM in “in vitro [2]” and in “in vitro [3]” were 105 ± 11.4% and 96.7 ± 13.5%, respectively.

Source of the values: PMC5623949, “Exploiting the 2-Amino-1,3,4-thiadiazole Scaffold To Inhibit Trypanosoma brucei Pteridine Reductase in Support of Early-Stage Drug Discovery” (ACS Omega, 2017).
